Blank lines part the entries; values can stand above or below the molecule they belong to.
Tested on: NCI-H1876 complex spheroid growth, % test/control
Test: Anticancer human tumor NCI-H1876 cell line growth inhibition [Asc];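 also: compound exposure lasted 7 days starting three days after seeding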;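 as to viability, T/C: 100% = DMSO vehicle control wells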
Details: for IC50: curve of first compound; for viability, T/C: stronger effect = lower value
Procedure: Multicellular complex tumor spheroid response to apoptosis pathway targeting inhibitors Alrizomadlin, Pelcitoclax, and Dasminapant in combination with a variety of drugs and investigational agents in selected tumor cell lines
The MDM2 inhibitor alrizomadlin, the Bcl-2/Bcl-xL inhibitor pelcitoclax, and the IAPs inhibitor dasminapant were evaluated both individually and in combination with standard of care and investigational anticancer small molecules within a complex spheroid model of solid tumors. . Complex spheroids include a stromal component modeled by human endothelial cells (HUVEC) and fibroblasts modeled by human mesenchymal stem cells (MSCs). The concentration ranges selected for each drug and investigational agent were based upon clinically achievable concentrations if the clinical Cmax of the agent was known.
Compounds. The drugs and investigational agents: alrizomadlin (APG-115; NSC831270), pelcitoclax (APG-1252; NSC835773), dasminapant (APG-1387;NSC834197), TAK-243 (NSC785004), copanlisib (NSC809693), olaparib (NSC753686), talazoparib (NSC767125), cobimetinib (NSC 768068), eltanexor (KPT-8602, NSC 794443), abemaciclib (NSC 768073), sotorasib (NSC818433), adagrasib (NSC 831453), MRTX-1133 (NSC 836407), Iadademestat (ORY1001, NSC 806812), and RMC-4630 (NSC839698), were obtained from the NCI Developmental Therapeutics Program Chemical Repository. The FDA-approved anticancer drug set is available from the Developmental Therapeutics Program at https://dtp.cancer.gov/organization/dscb/obtaining/available plates.htm. […] The stock solutions were prepared in dimethyl sulfoxide (DMSO, Sigma-Aldrich, St. Louis, MO, cat. D2650) at 800-fold the tested concentration and stored at -70 degrees C prior to their use. All drugs and investigational agents were tested over a range starting from a high concentration at or near the clinical Cmax and decreasing in half-log increments. If the clinical Cmax for an agent had not been determined, the highest concentration tested was 10 microM.
The patient-derived cancer (PDC) cell lines include five colon adenocarcinomas: 186277-243-T-J2-PDC, 616215-338-R-J1-PDC, 439559-082-T-J2-PDC, 463943-066-T-J2-PDC, and 519858-162-T-J1-PDC; three pancreatic carcinomas: 323965-272-R-J2-PDC, 521955-158-R6-J3-PDC, and 521955-158-R2-J5-PDC; two uterine sarcomas: 327498-152-R-J2-PDC and 993429-296-R-J1-PDC; two rhabdomyosarcomas: 755483-174-R-J1-PDC and 772245-204-R-J1-PDC; two soft tissue sarcomas: 126254-015-R-J1-PDC and 494315-158-R-J1-PDC; two malignant fibrous histiocytomas: 317291-083-R-J1-PDC and 596521-263-R-J1-PDC; two breast carcinomas: 171881-019-R-J1-PDC and 885512-296-R-J2-PDC; and one ovarian carcinoma: 6556581-035-R-J-PDC were obtained from the NCI PDMR, (https://pdmr.cancer.gov). The established cell lines HSSY-2 synovial sarcoma (RRID:CVCL 8719), SYO-1 synovial sarcoma (RRID:CVCL_7146), MPNST malignant peripheral neural sheath tumor were obtained from the Sloan Kettering Institute. The following established cell lines were purchased from the American Type Culture Collection (ATCC, Manassas, VA), Sor the received from the NCI repository:, PANC-1 pancreatic carcinoma (CRL-1469, RRID:CVCL_0480), OVCAR-5 ovarian carcinoma (RRID:CVCL_1628), OVCAR-8 ovarian carcinoma (RRID:CVCL_1629), , MCF-7 breast carcinoma (CRL-12584, RRID:CVCL_0031), MDA-MB-231 breast carcinoma (CRL-12532, RRID:CVCL_0062), NCI-H1876 small cell lung carcinoma (CRL-5902, RRID:CVCL_1503), NCI-H510A small cell lung carcinoma (HTB-184, RRID:CVCL_1565), NCI-H1417 (CRL-5869, RRID:CVCL_1469), and NCI-H196 small cell lung carcinoma (CRL-5823, RRID:CVCL_1509). Dr. Peter Houghton (Greehey Children's Cancer Research Institute, University of Texas Health Science Center, San Antonio, TX) provided Rh-18 rhabdomyosarcoma (RRID:CVCL_1659). Pooled donor human umbilical vein endothelial cells (HUVEC, Lonza, cat. CC-2519) and human mesenchymal stem cells (hMSC, Lonza, cat. PT-2501) were purchased from Lonza (Walkersville, MD).
Cell Culture. […]

[1] = second compound 0.00949 µM, first compound 0.0316 µM
[2] = second compound 0.00949 µM, first compound 0.1 µM
[3] = second compound 0.00949 µM, first compound 0.316 µM
[4] = second compound 0.00949 µM, first compound 1 µM
[5] = second compound 0.00949 µM, first compound 3.16 µM
[6] = second compound 0.00949 µM, first compound 10 µM
[7] = second compound 0.03 µM, first compound 0.0316 µM
[8] = second compound 0.03 µM, first compound 0.1 µM
[9] = second compound 0.03 µM, first compound 0.316 µM
[10] = second compound 0.03 µM, first compound 1 µM
[11] = second compound 0.03 µM, first compound 3.16 µM
[12] = second compound 0.03 µM, first compound 10 µM
[13] = second compound 0.0949 µM, first compound 0.0316 µM
[14] = second compound 0.0949 µM, first compound 0.1 µM
[15] = second compound 0.0949 µM, first compound 0.316 µM
[16] = second compound 0.0949 µM, first compound 1 µM
[17] = second compound 0.0949 µM, first compound 3.16 µM
[18] = second compound 0.0949 µM, first compound 10 µM
[19] = second compound 0.3 µM, first compound 0.0316 µM
[20] = second compound 0.3 µM, first compound 0.1 µM
[21] = second compound 0.3 µM, first compound 0.316 µM
[22] = second compound 0.3 µM, first compound 1 µM
[23] = second compound 0.3 µM, first compound 3.16 µM
[24] = second compound 0.3 µM, first compound 10 µM
[25] = second compound 0.949 µM, first compound 0.0316 µM
[26] = second compound 0.949 µM, first compound 0.1 µM
[27] = second compound 0.949 µM, first compound 0.316 µM
[28] = second compound 0.949 µM, first compound 1 µM
[29] = second compound 0.949 µM, first compound 3.16 µM
[30] = second compound 0.949 µM, first compound 10 µM
[31] = second compound 3 µM, first compound 0.0316 µM
[32] = second compound 3 µM, first compound 0.1 µM
[33] = second compound 3 µM, first compound 0.316 µM
[34] = second compound 3 µM, first compound 1 µM
[35] = second compound 3 µM, first compound 3.16 µM
[36] = second compound 3 µM, first compound 10 µM

IC50 (second compound 0.00949 µM): > 10 µM
IC50 (second compound 0.03 µM): > 10 µM
IC50 (second compound 0.0949 µM): > 10 µM
IC50 (second compound 0.3 µM): > 10 µM
IC50 (second compound 0.949 µM): > 10 µM
IC50 (second compound 3 µM): > 10 µM
SMILES: C#Cc1c(F)ccc2cc(O)cc(-c3ncc4c(N5CC6CCC(C5)N6)nc(OCC56CCCN5CC(F)C6)nc4c3F)c12 (stereo unspecified) + CCN1C(C(=O)NC23CCC(C(=O)O)(CC2)CC3)C(c2cccc(Cl)c2F)C2(C(=O)Nc3cc(Cl)ccc32)C12CCCCC2
viability, T/C [1]: 89.2%
viability, T/C [2]: 97.2%
viability, T/C [3]: 98.5%
viability, T/C [4]: 95.6%
viability, T/C [5]: 98.1%
viability, T/C [6]: 87.1%
viability, T/C [7]: 94.8%
viability, T/C [8]: 106%
viability, T/C [9]: 98.5%
viability, T/C [10]: 103%
viability, T/C [11]: 95.3%
viability, T/C [12]: 89.8%
viability, T/C [13]: 101%
viability, T/C [14]: 112%
viability, T/C [15]: 102%
viability, T/C [16]: 97.7%
viability, T/C [17]: 96.3%
viability, T/C [18]: 88.4%
viability, T/C [19]: 105%
viability, T/C [20]: 106%
viability, T/C [21]: 114%
viability, T/C [22]: 99.8%
viability, T/C [23]: 96.5%
viability, T/C [24]: 99.5%
viability, T/C [25]: 118%
viability, T/C [26]: 120%
viability, T/C [27]: 104%
viability, T/C [28]: 112%
viability, T/C [29]: 116%
viability, T/C [30]: 95%
viability, T/C [31]: 97.4%
viability, T/C [32]: 88%
viability, T/C [33]: 85.2%
viability, T/C [34]: 96.9%
viability, T/C [35]: 102%
viability, T/C [36]: 79.2%

IC50 (second compound 0.00949 µM): > 1 µM
IC50 (second compound 0.03 µM): > 1 µM
IC50 (second compound 0.0949 µM): > 1 µM
IC50 (second compound 0.3 µM): > 1 µM
IC50 (second compound 0.949 µM): > 1 µM
IC50 (second compound 3 µM): > 1 µM
SMILES: CCN1CCN(Cc2ccc(Nc3ncc(F)c(-c4cc(F)c5nc(C)n(C(C)C)c5c4)n3)nc2)CC1 + CCN1C(C(=O)NC23CCC(C(=O)O)(CC2)CC3)C(c2cccc(Cl)c2F)C2(C(=O)Nc3cc(Cl)ccc32)C12CCCCC2
viability, T/C (second compound 0.00949 µM, first compound 0.00316 µM): 103%
viability, T/C (second compound 0.00949 µM, first compound 0.01 µM): 100%
viability, T/C [1]: 106%
viability, T/C [2]: 115%
viability, T/C [3]: 115%
viability, T/C [4]: 129%
viability, T/C (second compound 0.03 µM, first compound 0.00316 µM): 102%
viability, T/C (second compound 0.03 µM, first compound 0.01 µM): 102%
viability, T/C [7]: 96.1%
viability, T/C [8]: 113%
viability, T/C [9]: 123%
viability, T/C [10]: 133%
viability, T/C (second compound 0.0949 µM, first compound 0.00316 µM): 105%
viability, T/C (second compound 0.0949 µM, first compound 0.01 µM): 95.9%
viability, T/C [13]: 117%
viability, T/C [14]: 109%
viability, T/C [15]: 116%
viability, T/C [16]: 127%
viability, T/C (second compound 0.3 µM, first compound 0.00316 µM): 103%
viability, T/C (second compound 0.3 µM, first compound 0.01 µM): 105%
viability, T/C [19]: 102%
viability, T/C [20]: 113%
viability, T/C [21]: 123%
viability, T/C [22]: 129%
viability, T/C (second compound 0.949 µM, first compound 0.00316 µM): 110%
viability, T/C (second compound 0.949 µM, first compound 0.01 µM): 114%
viability, T/C [25]: 106%
viability, T/C [26]: 114%
viability, T/C [27]: 131%
viability, T/C [28]: 122%
viability, T/C (second compound 3 µM, first compound 0.00316 µM): 113%
viability, T/C (second compound 3 µM, first compound 0.01 µM): 99.2%
viability, T/C [31]: 109%
viability, T/C [32]: 108%
viability, T/C [33]: 116%
viability, T/C [34]: 111%

IC50 (second compound 0.00949 µM): 6.65 µM
IC50 (second compound 0.03 µM): 6.95 µM
IC50 (second compound 0.0949 µM): 6.91 µM
IC50 (second compound 0.3 µM): 6.79 µM
IC50 (second compound 0.949 µM): 6.4 µM
IC50 (second compound 3 µM): 5.67 µM
SMILES: C=C(F)C(=O)N1CCN(c2nc(OCC3CCCN3C)nc3c2CCN(c2cccc4cccc(Cl)c24)C3)CC1CC#N (stereo unspecified) + CCN1C(C(=O)NC23CCC(C(=O)O)(CC2)CC3)C(c2cccc(Cl)c2F)C2(C(=O)Nc3cc(Cl)ccc32)C12CCCCC2
viability, T/C [1]: 93.6%
viability, T/C [2]: 102%
viability, T/C [3]: 102%
viability, T/C [4]: 107%
viability, T/C [5]: 107%
viability, T/C [6]: 21.5%
viability, T/C [7]: 104%
viability, T/C [8]: 108%
viability, T/C [9]: 109%
viability, T/C [10]: 110%
viability, T/C [11]: 106%
viability, T/C [12]: 24%
viability, T/C [13]: 107%
viability, T/C [14]: 99.3%
viability, T/C [15]: 101%
viability, T/C [16]: 98.5%
viability, T/C [17]: 101%
viability, T/C [18]: 26%
viability, T/C [19]: 104%
viability, T/C [20]: 92.1%
viability, T/C [21]: 99.3%
viability, T/C [22]: 110%
viability, T/C [23]: 111%
viability, T/C [24]: 22.9%
viability, T/C [25]: 111%
viability, T/C [26]: 107%
viability, T/C [27]: 108%
viability, T/C [28]: 116%
viability, T/C [29]: 109%
viability, T/C [30]: 12.7%
viability, T/C [31]: 109%
viability, T/C [32]: 109%
viability, T/C [33]: 110%
viability, T/C [34]: 112%
viability, T/C [35]: 93.8%
viability, T/C [36]: 7.68%
